Patent publication EP4524128A1, “BENZOPHENONE CROSSLINKERS” (Hemoteq AG, priority 2023, dated 2025)
Entries after “also recorded” stand apart in the source; their conditions may differ.

Test: Solubility in solvents and monomer
Assay type: physicochemical

Row | Solubility in THF | Solubility in acetone (acetone) | Solubility in chloroform (chloroform) | Solubility in deionized water (deionized water) | Solubility in ethanol (ethanol) | Solubility in ethyl acetate (ethyl acetate) | Solubility in n-heptane (n-heptane) | Structure (SMILES) | Solubility in N-vinylpyrrolidone
1 | moderately soluble | insoluble | highly soluble | insoluble | insoluble | insoluble | slightly to sparingly soluble | C=C(C)C(=O)OCCOC(=O)c1ccc(C(=O)c2ccccc2)cc1 [HEMA-BBA, 1-(4-benzoylbenzoic acid)-2-methaacrylic acid-glycolester] | only slowly soluble
2 | Freely soluble |  |  |  |  |  |  | C=C(C)C(=O)NCCCNC(=O)c1ccc(C(=O)c2ccccc2)cc1 [APMA-BBC, N-[3-(4-benzoylbenzamido)propyl]methacrylamide] | readily soluble; also recorded: Freely soluble
